Assay results taken from the supplement of paper PMC11061612.

Key:
Test in all cases: Bliss excess, mean over the matrix (fraction); higher = more synergy
[1] = test system: B-CPAP (Thyroid Gland Carcinoma)
Procedure, shortened: (§1)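 After 24 hours at 37°C and 5% CO2 in 1536-well plates, cells in DMEM/F12 or RPMI plus 10% FBS received two-drug dose matrices for 72 hours. Viability came from CellTiter-Glo 2.0 luminescence and was scaled as inhibition, anchored at 0 by vehicle wells and at 1 by blank wells. Combination Emax is taken as the second-highest inhibition in the matrix, and Bliss excess as the observed combination effect less EA + EB − EA·EB, with EA and EB the single-agent effects.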

[2] = test system: CAL-148 (Breast Carcinoma)
Procedure, shortened: as §1

[3] = test system: CCRF-CEM (T-Lymphoblastic Leukemia)
Procedure, shortened: as §1

[4] = test system: EC-GI-10 (Esophageal Squamous Cell Carcinoma)
Procedure, shortened: as §1

ES4 (Ewing's Sarcoma) = test system: ES4 (Ewing's Sarcoma)
Procedure, shortened: as §1

[5] = test system: HCC-78 (Lung Adenocarcinoma)
Procedure, shortened: as §1

[6] = test system: HCC1806 (Breast Carcinoma)
Procedure, shortened: as §1

HOS (Osteosarcoma) = test system: HOS (Osteosarcoma)
Procedure, shortened: as §1

[7] = test system: Hs-578-T (Breast Carcinoma)
Procedure, shortened: as §1

[8] = test system: KP-1N (Pancreatic Carcinoma)
Procedure, shortened: as §1

[9] = test system: KYSE-520 (Esophageal Squamous Cell Carcinoma)
Procedure, shortened: as §1

[10] = test system: LB831-BLC (Bladder Carcinoma)
Procedure, shortened: as §1

[11] = test system: LU-135 (Small Cell Lung Carcinoma)
Procedure, shortened: as §1

[12] = test system: MFE-296 (Endometrial Carcinoma)
Procedure, shortened: as §1

[13] = test system: NCI-H82 (Small Cell Lung Carcinoma)
Procedure, shortened: as §1

[14] = test system: OVCA420 (Ovarian Carcinoma)
Procedure, shortened: as §1

[15] = test system: RO82-W-1 (Thyroid Gland Carcinoma)
Procedure, shortened: as §1

[16] = test system: SK-ES-1 (Ewing's Sarcoma)
Procedure, shortened: as §1

[17] = test system: SNU-5 (Gastric Carcinoma)
Procedure, shortened: as §1

T98G (Glioblastoma) = test system: T98G (Glioblastoma)
Procedure, shortened: as §1

| SMILES | Bliss excess [1] | Bliss excess [2] | Bliss excess [3] | Bliss excess [4] | Bliss excess (ES4 (Ewing's Sarcoma)) | Bliss excess [5] | Bliss excess [6] | Bliss excess (HOS (Osteosarcoma)) | Bliss excess [7] | Bliss excess [8] | Bliss excess [9] | Bliss excess [10] | Bliss excess [11] | Bliss excess [12] | Bliss excess [13] | Bliss excess [14] | Bliss excess [15] | Bliss excess [16] | Bliss excess [17] | Bliss excess (T98G (Glioblastoma)) |
| --- | --- | --- | --- | --- | --- | --- | --- | --- | --- | --- | --- | --- | --- | --- | --- | --- | --- | --- | --- | --- |
| CCc1c2c(nc3ccc(O)cc13)-c1cc3c(c(=O)n1C2)COC(=O)[C@]3(O)CC [SN-38] + CN(C)CCCOc1ccc(-c2ccc3ncc4c(c3c2)n(C2CCOCC2)c(=O)n4C)cn1 [AZD0156] (first compound max 0.3 µM, 7x7, partner max 1 µM) | 0.0105 | -0.0174 | 0.0508 | 0.0134 | 0.0523 | -0.0066 | -0.0222 | 0.0114 | 0.169 | 0.0531 | -0.0071 | 0.0223 | -0.0201 | -0.0007 | 0.0287 | -0.008 | -0.088 | 0.0037 | -0.0237 | -0.03 |
| C[C@@H](c1ccc2nccn2c1)n1nnc2ncc(-c3cnn(C)c3)nc21 [Savolitinib] + CC1(C)CCC(CN2CCN(c3ccc(C(=O)NS(=O)(=O)c4ccc(NCC5CCOCC5)c([N+](=O)[O-])c4)c(Oc4cnc5[nH]ccc5c4)c3)CC2)=C(c2ccc(Cl)cc2)C1 [Venetoclax] (first compound max 1 µM, 7x7, partner max 1 µM) | -0.0453 | -0.0359 | -0.0527 | -0.0547 | -0.0443 | -0.0514 | -0.0367 | -0.0243 | -0.0363 | -0.0646 | -0.0774 | -0.0978 | -0.0561 | -0.0427 | -0.0467 | -0.0505 | -0.0371 | -0.0545 | -0.0585 | -0.0064 |
| C[C@@H](c1ccc2nccn2c1)n1nnc2ncc(-c3cnn(C)c3)nc21 [Savolitinib] + Cc1c2c(nn1C)CSCc1cc(n(C)n1)CSc1cc(c3ccccc3c1)OCCCc1c(C(=O)O)n(C)c3c-2c(Cl)ccc13 [AZD5991] (first compound max 1 µM, 7x7, partner max 1 µM) | -0.0221 | 0.0087 | 0.0088 | -0.07 | -0.0724 | -0.0366 | 0.0014 | -0.0188 | -0.0137 | -0.0637 | -0.0615 | -0.0148 | -0.0056 | -0.0228 | -0.0763 | -0.0134 | -0.0386 | -0.0326 | 0.0188 | -0.021 |
| Cn1cnc2c(F)c(Nc3ccc(Br)cc3Cl)c(C(=O)NOCCO)cc21 [Selumetinib] + C=CCn1c(=O)c2cnc(Nc3ccc(N4CCN(C)CC4)cc3)nc2n1-c1cccc(C(C)(C)O)n1 [AZD1775] (first compound max 10 µM, partner max 1 µM) | -0.0704 | -0.0543 | 0.0378 | -0.0424 | -0.0679 | -0.0293 | 0.0042 | -0.0713 | -0.0423 | -0.0298 | 0.0054 | -0.08 | -0.0337 | -0.059 | -0.106 | -0.0093 | -0.0769 | -0.0706 | -0.0239 | -0.0395 |
| Cn1cnc2c(F)c(Nc3ccc(Br)cc3Cl)c(C(=O)NOCCO)cc21 [Selumetinib] + CC(C)n1c(=O)n(C)c2cnc3cc(F)c(-c4ccc(OCCCN5CCCCC5)nc4)cc3c21 [AZD1390] (first compound max 10 µM, 7x7, partner max 0.3 µM) | -0.0222 | -0.0421 | -0.0131 | -0.0359 | -0.0515 | -0.0313 | -0.0029 | -0.0404 | -0.0426 | -0.0532 | -0.0115 | -0.0237 | -0.0318 | -0.0529 | -0.0349 | 0.0018 | -0.034 | -0.0246 | 0.0649 | -0.0125 |
| Cn1cnc2c(F)c(Nc3ccc(Br)cc3Cl)c(C(=O)NOCCO)cc21 [Selumetinib] + CCN(CCO)CCCOc1ccc2c(Nc3cc(CC(=O)Nc4cccc(F)c4)[nH]n3)ncnc2c1 [AZD2811] (first compound max 10 µM, 7x7, partner max 1 µM) | 0.001 | -0.029 | 0.0007 | 0.0087 | -0.0398 | -0.0124 | -0.0063 | -0.0192 | 0.0203 | -0.0461 | 0.0547 | -0.0385 | -0.0118 | -0.0309 | 0.0317 | 0.0471 | 0.0016 | -0.0272 | 0.0274 | -0.0104 |
| Cn1cnc2c(F)c(Nc3ccc(Br)cc3Cl)c(C(=O)NOCCO)cc21 [Selumetinib] + C[C@@H]1COCCN1C2=NC(=NC(=C2)C3(CC3)[S@](=N)(=O)C)C4=C5C=CNC5=NC=C4 [AZD6738] (first compound max 10 µM, 7x7, partner max 10 µM) | -0.0026 | -0.0407 | -0.0108 | 0.0623 | -0.039 | -0.0254 | 0.0496 | -0.0613 | 0.009 | -0.0061 | 0.0227 | -0.0569 | 0.0383 | -0.0543 | -0.0337 | 0.078 | -0.0242 | -0.005 | 0.0524 | -0.0174 |
| CC(=O)Nc1cccc(-n2c(=O)n(C3CC3)c(=O)c3c(Nc4ccc(I)cc4F)n(C)c(=O)c(C)c32)c1 [Trametinib] + Cc1nc(-c2cn3c(n2)-c2ccc(-c4cnn(C(C)(C)C(N)=O)c4)cc2OCC3)n(C(C)C)n1 [Taselisib] (first compound max 1 µM, 7x7, partner max 10 µM) | 0.141 | 0.0554 | 0.0951 | 0.112 | 0.0891 | 0.0913 | 0.257 | 0.0604 | 0.0773 | 0.101 | 0.0534 | 0.0977 | 0.113 | 0.0323 | 0.0361 | 0.0806 | 0.0426 | 0.0641 | 0.141 | 0.0822 |
| CC1(C)CCC(CN2CCN(c3ccc(C(=O)NS(=O)(=O)c4ccc(NCC5CCOCC5)c([N+](=O)[O-])c4)c(Oc4cnc5[nH]ccc5c4)c3)CC2)=C(c2ccc(Cl)cc2)C1 [Venetoclax] + C1CN(CCC1(C(=O)N[C@@H](CCO)C2=CC=C(C=C2)Cl)N)C3=NC=NC4=C3C=CN4 [Capivasertib] (first compound max 1 µM, 7x7, partner max 3 µM) | -0.0312 | -0.0444 | 0.0042 | -0.0488 | -0.0231 | -0.0331 | -0.0087 | -0.0243 | -0.0255 | -0.0193 | -0.0575 | -0.0272 | -0.0429 | -0.0063 | -0.0458 | -0.0357 | -0.0312 | 0.0068 | -0.0485 | -0.0382 |
| CC1(C)CCC(CN2CCN(c3ccc(C(=O)NS(=O)(=O)c4ccc(NCC5CCOCC5)c([N+](=O)[O-])c4)c(Oc4cnc5[nH]ccc5c4)c3)CC2)=C(c2ccc(Cl)cc2)C1 [Venetoclax] + C=CCn1c(=O)c2cnc(Nc3ccc(N4CCN(C)CC4)cc3)nc2n1-c1cccc(C(C)(C)O)n1 [AZD1775] (first compound max 1 µM, partner max 1 µM) | -0.0835 | 0.0589 | 0.0922 | 0.0086 | -0.0268 | 0.0098 | -0.026 | -0.0335 | -0.0347 | -0.047 | -0.0907 | -0.0004 | -0.0538 | -0.0391 | 0.0342 | -0.0079 | -0.0757 | 0.0455 | -0.0649 | 0.0648 |
| CC1(C)CCC(CN2CCN(c3ccc(C(=O)NS(=O)(=O)c4ccc(NCC5CCOCC5)c([N+](=O)[O-])c4)c(Oc4cnc5[nH]ccc5c4)c3)CC2)=C(c2ccc(Cl)cc2)C1 [Venetoclax] + CCN(CCO)CCCOc1ccc2c(Nc3cc(CC(=O)Nc4cccc(F)c4)[nH]n3)ncnc2c1 [AZD2811] (first compound max 1 µM, 7x7, partner max 1 µM) | 0.0031 | -0.0461 | -0.0322 | -0.0058 | -0.029 | -0.0149 | 0.0137 | -0.0102 | -0.0451 | -0.0182 | -0.0294 | -0.0073 | -0.0099 | -0.013 | 0.0452 | -0.0114 | -0.0604 | 0.0156 | -0.0426 | -0.0169 |
| CC1(C)CCC(CN2CCN(c3ccc(C(=O)NS(=O)(=O)c4ccc(NCC5CCOCC5)c([N+](=O)[O-])c4)c(Oc4cnc5[nH]ccc5c4)c3)CC2)=C(c2ccc(Cl)cc2)C1 [Venetoclax] + CN(C)CCCOc1ccc(-c2ccc3ncc4c(c3c2)n(C2CCOCC2)c(=O)n4C)cn1 [AZD0156] (first compound max 1 µM, 7x7, partner max 1 µM) | 0.0113 | -0.0006 | 0.0436 | 0.0119 | -0.0226 | 0.0213 | 0.0097 | -0.033 | -0.0426 | -0.0431 | -0.0218 | -0.061 | -0.0012 | 0.0003 | 0.0295 | -0.02 | -0.0586 | 0.0502 | 0.0053 | -0.0509 |
